Laboratory results as given in patent publication US6355799B1, “Substituted benzene compounds, process for their preparation, and herbicidal and defoliant compositions containing them” (ISK Americas Incorporated, priority 1997, dated 2002).

Tests used:
Assay type in all cases: in vivo
[1] = system: field corn (Zea mays L., var. Dekalb 535, CORN); experiment: Pre-emerge test, crop safety
How it was run: (§1)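 Herbicidal damage is scored 0 (none) to 100 (complete plant death) two weeks after a simulated field spray. Rates span 15–1000 g ai/ha, delivered in acetone at 187 l/ha. For post-emergence treatments, plants have 2–3 leaves and the spray carries 0.25% v/v non-ionic surfactant.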

[2] = system: upland rice (Oryza sp., var. Tebonnet, RICE); experiment: Pre-emerge test, crop safety
How it was run: as §1

[3] = system: field corn (Zea mays L., var. Dekalb 535, CORN); experiment: Post-emerge test, crop safety; conditions: post-emerge, crop damage rating 0-100 at 14 days after application
How it was run: (§2)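 Each test used a mechanized track sprayer delivering 187 l/ha of acetone solution at 15–1000 g ai/ha. Post-emerge foliage at 2–3 leaves was treated with added 0.25% v/v non-ionic surfactant and bottom-watered only. Injury was assessed on day 14, where 100 means total kill.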

[4] = system: upland rice (Oryza sp., var. Tebonnet, RICE); experiment: Post-emerge test, crop safety; conditions: post-emerge, crop damage rating 0-100 at 14 days after application
How it was run: as §2

[5] = system: redroot pigweed (Amaranthus retroflexus, AMARE); experiment: Pre-emerge test, greenhouse herbicide activity screening
How it was run: (§3)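 Plants grown in 10 cm pots of sandy loam mix received acetone-dissolved compounds through a moving flat-fan nozzle. Doses ranged from 15 to 1000 g ai/ha. Pre-emerge pots were seeded one day earlier, post-emerge pots 8–21 days earlier. Fourteen days on, each pot was graded 0–100 for damage.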

[6] = system: lambsquarters (Chenopodium album, CHEAL); experiment: as above
How it was run: as §3

[7] = system: sicklepod (Cassia obtusifolia, CASOB); experiment: as above
How it was run: as §3

[8] = system: green foxtail (Setaria viridis, SETVI); experiment: as above
How it was run: as §3

[9] = system: barnyardgrass (Echinochloa crus-galli, ECHCG); experiment: as above
How it was run: as §3

[10] = system: ivyleaf morningglory (Ipomoea hederacea, IPOHE); experiment: as above
How it was run: as §3

[11] = system: large crabgrass (Digitaria sanguinalis, DIGSA); experiment: as above
How it was run: as §3

[12] = system: velvetleaf (Abutilon theophrasti, ABUTH); experiment: as above
How it was run: as §3

[13] = system: johnsongrass (Sorghum halepense, SORHA); experiment: as above
How it was run: as §3

[14] = system: lambsquarters (Chenopodium album, CHEAL); experiment: Post-emerge test, greenhouse herbicide activity screening; conditions: post-emerge, phytotoxicity rating 0-100 at 14 days after application
How it was run: (§4)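 Visual ratings on a 0-100 scale (0 no damage, 100 all plants dead) were taken at 14 days after treatment. Rates of 15-1000 g ai/ha in acetone, 187 l/ha, were sprayed onto soil one day after planting (pre-emerge) or onto 2-3 leaf plants with 0.25% v/v surfactant (post-emerge).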

[15] = system: sicklepod (Cassia obtusifolia, CASOB); experiment: as above; conditions: post-emerge, phytotoxicity rating 0-100 at 14 days after application
How it was run: as §4

[16] = system: green foxtail (Setaria viridis, SETVI); experiment: as above; conditions: post-emerge, phytotoxicity rating 0-100 at 14 days after application
How it was run: as §4

[17] = system: barnyardgrass (Echinochloa crus-galli, ECHCG); experiment: as above; conditions: post-emerge, phytotoxicity rating 0-100 at 14 days after application
How it was run: as §4

[18] = system: ivyleaf morningglory (Ipomoea hederacea, IPOHE); experiment: as above; conditions: post-emerge, phytotoxicity rating 0-100 at 14 days after application
How it was run: as §4

[19] = system: large crabgrass (Digitaria sanguinalis, DIGSA); experiment: as above; conditions: post-emerge, phytotoxicity rating 0-100 at 14 days after application
How it was run: as §4

[20] = system: velvetleaf (Abutilon theophrasti, ABUTH); experiment: as above; conditions: post-emerge, phytotoxicity rating 0-100 at 14 days after application
How it was run: as §4

[21] = system: johnsongrass (Sorghum halepense, SORHA); experiment: as above; conditions: post-emerge, phytotoxicity rating 0-100 at 14 days after application
How it was run: as §4

[22] = system: redroot pigweed (Amaranthus retroflexus, AMARE); experiment: as above; conditions: post-emerge, phytotoxicity rating 0-100 at 14 days after application
How it was run: as §4

[23] = 250 g ai/ha, rating scale 0-100, 14 days after application
[24] = crop damage, pre-emerge, rate 63 g ai/ha, phytotoxicity rating 0-100 at 14 days after application
[25] = pre-emerge, rate 63 g ai/ha, phytotoxicity rating 0-100 at 14 days after application

Nc1c(O)c(Cl)cc(F)c1N1C(=O)C2CCCCN2C1=S (single isomer, unassigned) [12-2]
40: Pre-emerge Herbicidal Activity CORN [1, 24] | Pre-emerge Herbicidal Activity ECHCG [9, 25]
0: Post-emerge Herbicidal Activity SETVI ([16]; 63 g ai/ha) | Post-emerge Herbicidal Activity DIGSA ([19]; 63 g ai/ha)
70: Post-emerge Herbicidal Activity DIGSA ([19]; 250 g ai/ha)
30: Post-emerge Herbicidal Activity ECHCG ([17]; 63 g ai/ha) | Post-emerge Herbicidal Activity AMARE ([22]; 63 g ai/ha)
80: Post-emerge Herbicidal Activity RICE ([4]; 250 g ai/ha) | Post-emerge Herbicidal Activity ECHCG ([17]; 250 g ai/ha)
99: Pre-emerge phytotoxicity rating, crop damage CORN [1, 23] | Pre-emerge phytotoxicity rating, crop damage RICE [2, 23] | Pre-emerge Herbicidal Activity CASOB [7, 25] | Pre-emerge herbicidal activity, phytotoxicity rating ECHCG [9, 23]
95: Pre-emerge Herbicidal Activity SETVI [8, 25] | Pre-emerge Herbicidal Activity IPOHE [10, 25] | Pre-emerge Herbicidal Activity DIGSA [11, 25] | Post-emerge Herbicidal Activity CASOB ([15]; 250 g ai/ha)
20: Post-emerge Herbicidal Activity RICE ([4]; 63 g ai/ha)
50: Pre-emerge Herbicidal Activity RICE [2, 24] | Post-emerge Herbicidal Activity CASOB ([15]; 63 g ai/ha) | Post-emerge Herbicidal Activity SETVI ([16]; 250 g ai/ha)
100: Post-emerge Herbicidal Activity CORN ([3]; 250 g ai/ha) | Pre-emerge herbicidal activity, phytotoxicity rating AMARE [5, 23] | Pre-emerge Herbicidal Activity AMARE [5, 25] | Pre-emerge herbicidal activity, phytotoxicity rating CHEAL [6, 23] | Pre-emerge Herbicidal Activity CHEAL [6, 25] | Pre-emerge herbicidal activity, phytotoxicity rating CASOB [7, 23] | Pre-emerge herbicidal activity, phytotoxicity rating SETVI [8, 23] | Pre-emerge herbicidal activity, phytotoxicity rating IPOHE [10, 23] | Pre-emerge herbicidal activity, phytotoxicity rating DIGSA [11, 23] | Pre-emerge herbicidal activity, phytotoxicity rating ABUTH [12, 23] | Pre-emerge Herbicidal Activity ABUTH [12, 25] | Pre-emerge herbicidal activity, phytotoxicity rating SORHA [13, 23] | Post-emerge Herbicidal Activity CHEAL ([14]; 63 g ai/ha) | Post-emerge Herbicidal Activity CHEAL ([14]; 250 g ai/ha) | Post-emerge Herbicidal Activity IPOHE ([18]; 250 g ai/ha) | Post-emerge Herbicidal Activity ABUTH ([20]; 63 g ai/ha) | Post-emerge Herbicidal Activity ABUTH ([20]; 250 g ai/ha) | Post-emerge Herbicidal Activity AMARE ([22]; 250 g ai/ha)
90: Pre-emerge Herbicidal Activity SORHA [13, 25] | Post-emerge Herbicidal Activity IPOHE ([18]; 63 g ai/ha) | Post-emerge Herbicidal Activity SORHA ([21]; 250 g ai/ha)
10: Post-emerge Herbicidal Activity CORN ([3]; 63 g ai/ha) | Post-emerge Herbicidal Activity SORHA ([21]; 63 g ai/ha)
